The test system of one data set is Escherichia coli. Put plainly: Antibacterial activity against gram negative bacteria (E. coli). The format is cell-based. The method, then:
(§1) Biology Materials and Methods:
Metronidazole was sourced from sigma. […]
hydrogen orthophosphate (Fronine laboratory supplies, Riverstone, NSW).
Subcultures were performed once a confluent
Scientific). […] Vero cells were also obtained from Cellbank Australia and maintained as above.
(§2) In vitro drug efficacy assays
Resazurin Reduction Assay
For all assays the media of confluent cultures
2007). […] Resazurin (Sigma) was then
Plates were further incubated for colour development and absorbance read at 570 nm and 630 nm. Resazurin reduction was calculated according to the following formula: […]
broth for a random selection of compounds (Thermofisher Scientific). Compounds were diluted in DMSO to 100X […]
Cells were incubated for 18-24 hrs before interpretation of results. […]
blue and a haemocytometer. […]
was 25 μM. […] Assays were completed
After incubation cells were […]

The subject of another data set is Vero cells. Put plainly: In vitro cytotoxicity, Vero cells. As to conditions: Vero cells, 25 μM. The procedure: (§3) Biology Materials and Methods: […]
(§4) CaCo-2 cells, a human cell line derived from a primary colonic tumour, were sourced from Cellbank Australia and were maintained in MEM supplemented with 2 mM glutamine, 1% non-essential amino acids and 10% FCS (Thermo Scientific). Cells were passaged when confluent, approximately 1-2 times per week. Vero cells were also obtained from Cellbank Australia and maintained as above.
(§5) In vitro drug efficacy assays […]
The media was removed and replaced with an equal volume of warm PBS. Resazurin (Sigma) was then added at 10% of the total volume of the wells. Plates were further incubated for colour development and absorbance read at 570 nm and 630 nm. Resazurin reduction was calculated according to the following formula: […]
CaCo-2 or Vero cells, maintained as outlined above, were collected via trypsinisation and enumerated using trypan blue and a haemocytometer. Select analogues were prepared in DMSO so that the final concentration in the assay […]
in 96 well plates and incubated for 24 hours at 37°C, 5% CO2 in a humidified incubator. After incubation cells were […]
washed with warm PBS before the addition of 10% resazurin in PBS. Assays were incubated to allow colour development and absorbance read at 630 and 570nm. Activity of the analogues against mammalian cells was calculated according to the formula stated above. […]
reduction assay the mean and standard error of the mean was determined with each assay completed in triplicate.
The IC50 was calculated using the log (inhibitor) vs. normalised response – variable slope function in Graphpad […]

A further data set deals with CaCo-2 cells. As to conditions: human, 24 h, 25 μM. The procedure: as §3, §4, §5
2007). The media was removed and replaced with an equal volume of warm PBS. Resazurin (Sigma) was then added at 10% of the total volume of the wells. Plates were further incubated for colour development and absorbance read at 570 nm and 630 nm. Resazurin reduction was calculated according to the following formula: […]
(§6) CaCo-2 or Vero cells, maintained as outlined above, were collected via trypsinisation and enumerated using trypan blue and a haemocytometer. Select analogues were prepared in DMSO so that the final concentration in the assay was 25 μM. 1 X 10^5 cells/ml were added to each assay with the appropriate drug dilution. Assays were completed in 96 well plates and incubated for 24 hours at 37°C, 5% CO2 in a humidified incubator. After incubation cells were […]
(§7) washed with warm PBS before the addition of 10% resazurin in PBS. Assays were incubated to allow colour development and absorbance read at 630 and 570nm. Activity of the analogues against mammalian cells was calculated according to the formula stated above.

For data set [1], the system named is Giardia duodenalis trophozoites (BAH2c2 strain). Briefly: Resazurin reduction assay on Giardia trophozoites in vitro. It counts as cell-based. As to conditions: for IC50 / MIC: Giardia duodenalis; for MIC: minimum inhibitory concentration, read-out: Antigiardial activity MIC (24 h); for Selectivity ratio: higher ratios = more selective.
Text: as §1
Metronidazole was sourced from sigma.
Chemicals used for the culture of Giardia in vitro were sourced as follows: glucose and L-cysteine (ACROS organics, Thermo Fisher Scientific, Scoresby, Vic), Ammonium Iron (III) citrate, ascorbic Acid (Sigma -aldrich, Castle Hill, NSW), potassium dihydrogen orthophosphate (UNIVAR, Ingleburn, NSW), bovine bi le (Fluka analytical (BD)), di-potassium hydrogen orthophosphate (Fronine laboratory supplies, Riverstone, NSW).
G. duodenalis (BAH2c2 strain) was cultivated according to the method of Clark and Diamond in Keister’s modified TYI-S-33 medium, supplemented with heat inactivated foetal bovine serum (Hyclone™, Thermo Scientific, Scoresby, Vic) at 37°C in plastic 9 mL screw-capped test tubes (nunc). Subcultures were performed once a confluent monolayer was observed, approximately 2 – 3 times per week (Clark and Diamond, 2002).
as §4, §2
Resazurin Reduction Assay […]
tested to identify the IC50 and minimum lethal concentration (MLC). For all assays the media of confluent cultures was replaced with fresh media and the cultures were placed on ice for 40 minutes to detach trophozoites.
Trophozoites were enumerated using a haemocytometer and 50 000 trophozoites were added to each test well of a 96 well plate. Either single concentrations (final concentration 25 μM) for the screening assay or tripling dilutions […]
wells. The assays were repeated in triplicate with metronidazole and a DMSO (vehicle only) used as controls. Plates were incubated under anaerobic conditions (anaerogen sachet, Thermofisher scientific) for 5 or 24 hours at 37°C following which the viability of treated cells was determined using the resazurin reduction assay (Benere et al., 2007). The media was removed and replaced with an equal volume of warm PBS. Resazurin (Sigma) was then added at 10% of the total volume of the wells. Plates were further incubated for colour development and absorbance read at 570 nm and 630 nm. Resazurin reduction was calculated according to the following formula: […]
as §6, §7
In general terms: Resazurin is reduced to fluorescent resorufin, in cell work by metabolically active cells.

The test system of a further data set is Giardia duodenalis. Briefly: Washout / growth recovery of Giardia after 5 h exposure. It counts as cell-based. As to conditions: 5 h treatment, 48 h post removal.
A further data set is described as follows: In vivo toxicity in mice. As to conditions: per os, 100 mg/kg per day for 3 days, 100 mg/kg/day.
In another data set the test system is Giardia. Also on record: method as in PMID 14585063. As to conditions: drug treatment of Giardia infection; cited from earlier work.
Setting [2] is: 24 h, read-out: Antigiardial activity IC50 (24 h).
The mark [3] stands for this setting: toxicity tested at 25 μM vs 24 h IC50, Tables 1-3.

As usually defined, the IC50 is the concentration at which inhibition is half-maximal. For orientation: MIC means the least concentration at which growth counts as inhibited.

Converted amounts (≈) assume the structure as drawn. “Also recorded” adds a separate entry of the source. Read-outs that look alike come from different tables or passages of the source.

With `Cl.N=C(NN=Cc1ccc(Br)cc1)NN=Cc1ccc(Br)cc1` [Compound 6], the “Activity against gram negative bacteria / E. coli” value with Escherichia coli was “no antibacterial activity”. Moreover, in the data set on Vero cells, the cell death is reported as less than 10%. Further, in the data set with CaCo-2 cells, the “Toxicity (% growth control)” value is 97.1±1.6% and the cell death is given as less than 10%. Moreover, in data set [1] (setting [2]), the concentration for half-maximal inhibition (IC50) is 1700 nM. The minimum inhibitory concentration (MIC) in data set [1] (24 h) amounted to 8.3 µM. In addition, the Selectivity ratio in data set [1] (setting [3]) is given as greater than 14.7.
Turning to `COc1cc(Br)c(C=NNC(=N)NN=Cc2cc(OC)c(OC)cc2Br)cc1OC.Cl` [Compound 41, 2,2′‐bis[(2‐bromo‐4,5‐dimethoxyphenyl)methylene]carbonimidic dihydrazide hydrochloride], the “Giardia regrowth after compound removal” value in the data set with Giardia duodenalis is reported as “no Giardia regrowth; also recorded: did not result in Giardia regrowth”. For the same compound, the “Tolerability in mice (adverse effects)” value in the data set “In vivo toxicity in mice” is reported as “well tolerated; also recorded: no adverse effects”. In addition, in data set [1] (5 h, read-out: Antigiardial activity IC50 (5 h)), the concentration for half-maximal inhibition (IC50) came to 200 nM. Moreover, in data set [1] (data not shown), the “time to marked impact on Giardia trophozoites” value lay in the range of 1 to 2 h. Also, the Selectivity ratio in data set [1] (toxicity tested at 25 μM vs 5 h IC50, Table 4) is greater than 125.
Take `Cc1ncc([N+](=O)[O-])n1CCO` [Metronidazole, metronidazole, reference compound]: the “treatment success / reported efficacy” value in the data set on Giardia is 80–90%. For the same compound, in data set [1] (5 h, 25 μM), the “Antigiardial activity at 5 h” value is “inactive”. For the same compound, the IC50 in data set [1] (setting [2]) stood at 3800 nM. Moreover, in data set [1] (24 h), the MIC came to 8.3 µM (≈ 1.42 µg/mL). Also, the Selectivity ratio in data set [1] (setting [3]) is reported as greater than 6.6.
On to `Cl.N=C(N/N=C/c1ccc(Cl)cc1)N/N=C/c1ccc(Cl)cc1` [Robenidine 4, robenidine, reference compound], for which the “Toxicity (% growth control)” value with CaCo-2 cells came out at 40.7±22.6%. The “Giardia regrowth after compound removal” value in the data set on Giardia duodenalis is reported as “did not result in Giardia regrowth”. For the same compound, the 50% inhibitory concentration (IC50) in data set [1] (setting [2]) is 900 nM. Further, the MIC in data set [1] (24 h) was found to be 2.8 µM. Besides, the Selectivity ratio in data set [1] (setting [3]) was greater than 27.8.
With `CCCSc1ccc2nc(NC(=O)OC)[nH]c2c1` [albendazole], in the data set on Giardia, the “treatment success / reported efficacy” value was 62–95%.
On to `CCS(=O)(=O)CCn1c([N+](=O)[O-])cnc1C` [tinidazole], for which the “treatment success / reported efficacy” value with Giardia was 80–90%.

Source of the values: paper PMC9828538, “Antigiardial Activity of Novel Guanidine Compounds” (Chemmedchem, 2022).
